Laboratory results taken from patent US12257292B2, “Enhanced delivery of antioxidants for treatment of central nervous system disorders involving oxidative stress” (Beyond Barriers Therapeutics, Inc., priority 2017, dated 2025).

How the values were obtained:
[1] = design: species or system male Sprague-Dawley rats; details: rat, in vivo, 20 mg/kg
Method: (§1) In this example, a study was conducted to evaluate the pharmacokinetics of N-acetyl cysteine administered in an intranasal formulation. The study also evaluated the effectiveness on intranasally administered NAC to increase glutathione concentration in the brain.
C13-labelled N-acetyl L-cysteine (purchased from Cambridge Isotope Laboratories) was used to prepare formulations in phosphate-buffered saline (PBS) for the study. The subjects for the study were male Sprague-Dawley rats weighing approximately 250 grams, and 39 animals were separated into four groups, as shown in Table 1. The animals in the study groups were administered either an intranasal (IN) dose or an oral (PO) dose of N-acetyl cysteine via gavage, as shown in Table 1. Group 1 and group 2 were administered one 20 μl, intranasal injection. Group 3 was administered a single oral dose of 500 μL. Group 4 was administered two separate 10 μL intranasal injections (one per nostril). […]
Three animals from each Group were sacrificed at the established time points (0.5 hour, 1.0 hour and 2.0 hour), and whole brains from the sacrificed animals were collected for analysis. 3 animals from Group 3 were also sacrificed pre-dose and analyzed. […] Homogenates of the brain samples were prepared and analyzed, and glutathione (GSH) levels in the brain samples were measured by LC/MS.

[2] = system: blast induced mild traumatic brain injury; details: orally administered, cited from earlier work
[3] = orally administered; cited from earlier work
[4] = system: glutathione in the brain; assay: Glutathione (GSH) levels in whole-brain homogenates by LC/MS after intranasal or oral NAC; assay type: in vivo, male Sprague-Dawley rats; details: for glutathione in the brain compared to vehicle control (IN PBS): 0.5 hours and 2 hours following administration
Method: as §1
C13-labelled N-acetyl L-cysteine (purchased from Cambridge Isotope Laboratories) was used to prepare formulations in phosphate-buffered saline (PBS) for the study. The subjects for the study were male Sprague-Dawley rats weighing approximately 250 grams, and 39 animals were separated into four groups, as shown in Table 1. The animals in the study groups were administered either an intranasal (IN) dose or an oral (PO) dose of N-acetyl cysteine via gavage, as shown in Table 1. Group 1 and group 2 were administered one 20 μl, intranasal injection. Group 3 was administered a single oral dose of 500 μL. Group 4 was administered two separate 10 μL intranasal injections (one per nostril).
The animals were fasted the night prior to the study and were anesthetized using a cocktail of ketamine/xylazine before administration of the study formulation. The rats were left on their sides for 15 minutes after administration of the study formulation. The animals were observed post administration, and at least once a day, more if deemed necessary, during the pre-treatment and treatment periods for mortality and morbidity. In particular, signs of ill health were based on body weight loss, change in appetite, and behavioral changes such as altered gait, lethargy and gross manifestations of stress.
Three animals from each Group were sacrificed at the established time points (0.5 hour, 1.0 hour and 2.0 hour), and whole brains from the sacrificed animals were collected for analysis. 3 animals from Group 3 were also sacrificed pre-dose and analyzed. The brain samples were stored at −80° C. freezer until sample analysis. Homogenates of the brain samples were prepared and analyzed, and glutathione (GSH) levels in the brain samples were measured by LC/MS.

[5] = system: traumatic brain injury; details: more than 20 preclinical studies; cited from earlier work
[6] = system: traumatic brain injury; details: cited from earlier work

**Q.** With `CC(=O)N[C@@H](CS)C(=O)O` [NAC, N-acetylcysteine] as the compound, how does the “concentration of isotope labeled NAC in brain tissue following administration” value [1] read?
**A.** did not detect an increase

**Q.** And the “severity and resolution of sequelae of blast induced mild traumatic brain injury” value ([2]; 81 active duty service members)?
**A.** beneficial effects

**Q.** What about the “reducing the symptoms of mild-moderate traumatic brain injury in human patients” value [2] of the same compound?
**A.** effective

**Q.** And the adverse effects [3]?
**A.** may cause nausea, vomiting and diarrhea

**Q.** And the “raising glutathione levels in the brain, intranasal compared with oral NAC” value ([4]; intranasal 20 mg/kg vs oral (PO) 20 mg/kg, rat whole brain, FIG. 1)?
**A.** as effective as oral NAC

**Q.** And the “increased GSH concentration in the brain, IN NAC vs IN PBS group” value ([4]; intranasal 20 mg/kg, 2 hour point, p=0.033, Student's T-test, planned comparison)?
**A.** statistically significant

**Q.** And the “glutathione in the brain compared to vehicle control (IN PBS)” value ([4]; intranasal NAC 20 mg/kg)?
**A.** Clear trends for increased glutathione

**Q.** And the “glutathione in the brain compared to vehicle control (IN PBS)” value ([4]; oral NAC 20 mg/kg)?
**A.** Clear trends for increased glutathione

**Q.** What does the source list for erythropoietin?
**A.** outcome following traumatic brain injury [5]: improves outcome; increase of the incidence of deep venous thrombosis of the lower limbs ([6]; in vivo): did not; number of patients with severe neurological dysfunction (GOS-E level 1-4) ([6]; large multi-center randomized controlled trial): did not reduce
